# Measurements reported in US20260285903A1, “SYNTHESIZED BIOLOGICALLY ACTIVE COMPOUNDS AND METHODS OF MAKING AND USING” (Georgia State University Research Foundation, Inc., priority 2023, published 2026).
# “Also recorded” adds a separate entry of the source. Read-outs that look alike come from different tables or passages of the source.
# Columns and labels:
# Tester strain TA98 = assay: Ames test (bacterial reverse mutation), strain TA98; assay type: cell-based, Salmonella typhimurium; settings: TA98, all tested concentrations
# Experimental: (§1) The mutagenic potential of M13 was assessed using the Ames test. The Ames test, or bacterial reverse mutation test, introduced by Bruce Ames and his group in the early 1970s, is currently widely employed to assess the mutagenic potential of chemical compounds. In this biological assay, several strains of Salmonella ryphimurium carrying mutations in genes responsible for histidine synthesis are used, so these strains cannot produce this critical amino acid. […]
# (§2) M13 at concentrations of […] and positive (NaN3; 2-nitrofluorene (NF) and 2-amonoanthracene) and negative (PBS) controls were tested on two tester strains; TA98 reverted from histidine dependence (auxotrophy) to histidine independence (prototrophy) by frameshift mutagens and tester TA100 reverted by mutagens that cause both frameshift and base pair substitution mutations. The colony numbers on the negative, positive control and M13 treated plates were determined by manual counting. The mean number of revertants per plate, the standard deviation, and the mutation factor (i.e., mean number of revertants on the test item plate/mean number of revertants on the vehicle plate) were calculated.
# (§3) Next, the mutagenic potential of M13 using a Salmonella typhimurium reverse mutation assay were assessed (Ames test). […]
# [1] = pKa by UV metric at pH 2 to pH 12; assay type: physicochemical
# Text: The pKa of a drug influences lipophilicity, solubility, protein binding, and permeability, which in turn directly affects pharmacokinetic (PK) characteristics such as absorption, distribution, metabolism, and excretion.
# The biopharmaceutical properties of the synthesized M13 (5-glutathione-6-shogaol) were characterized.
# SPHK2 = SPHK2 (Homo sapiens, UniProt Q9NRA0); assay: Radiometric 33P kinase assay, 17 Lipid Kinase Panel; assay type: biochemical; settings: 20 μM M13, 10 μM ATP; read-out: inhibition of enzyme activity relative to control
# Sequence of SPHK2 (Q9NRA0 whole entry): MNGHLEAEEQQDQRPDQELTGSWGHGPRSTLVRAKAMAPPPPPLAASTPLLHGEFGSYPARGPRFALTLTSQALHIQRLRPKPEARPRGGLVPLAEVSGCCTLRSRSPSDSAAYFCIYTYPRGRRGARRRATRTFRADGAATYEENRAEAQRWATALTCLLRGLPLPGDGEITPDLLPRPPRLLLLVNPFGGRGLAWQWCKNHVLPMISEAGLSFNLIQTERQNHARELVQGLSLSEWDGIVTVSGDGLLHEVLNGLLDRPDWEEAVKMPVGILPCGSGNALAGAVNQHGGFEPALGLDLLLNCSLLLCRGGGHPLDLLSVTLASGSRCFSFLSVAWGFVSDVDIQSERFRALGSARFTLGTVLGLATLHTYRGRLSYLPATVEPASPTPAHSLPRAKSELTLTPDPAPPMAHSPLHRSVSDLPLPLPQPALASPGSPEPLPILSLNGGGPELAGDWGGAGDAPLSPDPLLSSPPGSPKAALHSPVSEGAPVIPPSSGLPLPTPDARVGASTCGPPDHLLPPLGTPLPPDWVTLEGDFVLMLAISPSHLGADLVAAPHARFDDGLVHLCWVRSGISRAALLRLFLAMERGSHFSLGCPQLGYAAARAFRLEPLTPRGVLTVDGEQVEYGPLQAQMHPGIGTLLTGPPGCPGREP
# Text: It was hypothesized that M13 may target kinases to reduce the inflammatory response. Determination and improvement of the selectivity of a compound by screening a large part of the kinome are of pivotal importance in the discovery of M13 signaling pathways for its anti-inflammatory activities. Radiometric assays were used based on the transfer of ^33P-labeled phosphate from ATP to the kinase substrates found in the 376 Wild Type Kinase Panel and 17 Lipid Kinase Panel (Reaction Biology) and a broad kinase selectivity screen for the inhibitory activity of M13 was performed. Briefly, radiometric assays are based on the transfer of 10 μM ^33P-labelled phosphate from ATP to the kinase substrate. […] FIGS. 2A and 2B show the targeted inhibitor effects of M13 on lipid kinases (FIG. 2A) and protein kinases (FIG. 2B).
# tester TA100 = assay: Ames test (bacterial reverse mutation), strain TA100; assay type: cell-based, Salmonella typhimurium; settings: TA100, all tested concentrations
# Experimental: as §1, §2, §3
# [2] = tested on: lung cancer cells (H-1299); settings: cited from earlier work
# SARS-CoV-2 = SARS-CoV-2 infectivity IF assay (Nucleocapsid staining) in Vero cells; assay type: cell-based; settings: Vero cells pre-incubated 60 minutes prior to infection, 24 hours, read-out: EC50 antiviral activity against SARS-CoV-2
# Experimental: Cells were seeded in complete media at 8000 cells/100 μl/well in four plates: two for the cytotoxicity assay and two for the infectivity assay. After seeding, the plates were incubated at room temperature for 5 minutes for even distribution, and then at 37° C., 5% CO2 until the following day.
# Formulations were prepared at twice the final concentration, and they were diluted to the final desired concentration by an equal volume of virus or media. The initial amounts weighted and the volume in which these were resuspended are recorded.
# The prepared stocks (0.5 mg/ml) were diluted in 800 μl of infection media to twice the final drug concentration (200 μM). […]
# Residual formaldehyde was quenched with 50 mM Ammonium Chloride, after which cells were permeabilized (0.1% Triton X 100) and stained with an antibody recognizing SARS-CoV2 Nucleocapsid protein (Thermo Fisher MA536271). The primary antibody was detected with an Alexa-488 conjugate secondary antibody (Life Technologies, A21207), and nuclei were stained with Hoechst. Images were acquired on a Cell-Insight CX5 high content platform (Thermo Scientific) using a 4× objective, and percentage infection calculated using CellInsight CX5 software (infected cells/total cells×100).
# Normalized percentages of inhibition were calculated using the following formula: […]
# HIEC-6 cells = assay: MTT viability assay, 2D culture; assay type: cell-based; settings: Homo sapiens
# Experimental: PBMCs were provided by STEMCELL Technologies (STEMCELL Canada Inc.) and maintained in ImmunoCult™-XF T-cell Expansion Medium (Cat #10981). HIEC-6 cells were maintained in OptiMEM 1 Reduced Serum Medium supplemented with 20 mM HEPES, 10 mM GlutaMAX, 10 ng/mL Epidermal Growth Factor, 4% (v/v) fetal bovine serum (FBS), and 1% penicillin-streptomycin (PS). HCT-116 cells were maintained in ATCC-formulated McCoy's 5a medium, supplemented with 10% (v/v) FBS and 1% PS. Caco-2/BBe cells were grown in DMEM supplemented with 10% (v/v) FBS and 1% PS (v/v). Human colon cancer stem cells (HC-CSC) were maintained in complete growth media with serum and antibiotics (Cat #M36112-39S) from Celprogen Inc. (Torrance, CA, USA).
# The […] (MTT) assay was used to study the effects of M13 on the viability of four 2D-cultured human intestinal cell lines (HIEC-6, HCT-116, Caco-2/BBe, and HC-CSC).
smiles,measurement,setting,value
"CCCCCC(CC(=O)CCc1ccc(O)c(OC)c1)SCC(NC(=O)CCC(N)C(=O)O)C(=O)NCC(=O)O (centres unmarked) [M13, 5-glutathione-6-shogaol]",revertant colony numbers,Tester strain TA98,did not demonstrate an increase in revertant colony numbers; also recorded: did not increase the number of revertant colonies
same,pKa,[1]; read-out: pKa1,3.24
same,pKa,[1]; read-out: pKa2,9.12
same,pKa,[1]; read-out: pKa3,10.4
same,inhibition at 20 µM,SPHK2,30 to 45%
same,revertant colony numbers,tester TA100,did not demonstrate an increase in revertant colony numbers; also recorded: did not increase the number of revertant colonies
same,bioactivity,[2],exhibited bioactivity
same,EC50,"SARS-CoV-2; Severe acute respiratory syndrome coronavirus 2, Vero",~36 µM
same,EC50,SARS-CoV-2,35.8 µM
same,IC50,HIEC-6 cells; HIEC-6,> 100 µM
same,IC50,"HIEC-6 cells; HIEC-6, 24 h",> 100 µM
